Test: Solubility of Compound 1 in Kleptose solutions ('top-down' approach)
Assay type: physicochemical
Details: formic acid 1.65 mg/mL
Experimental: The Kleptose concentration varied from 30 to 100 mg/mL.

O=C1CCC(N2Cc3cc(CNC(=O)C(F)(F)c4ccc(Cl)cc4)ccc3C2=O)C(=O)N1 (stereo not drawn) [Compound 1, 2-(4-chlorophenyl)-N-((2-(2,6-dioxopiperidin-3-yl)-1-oxoisoindolin-5-yl)methyl)-2,2-difluoroacetamide]
Assay at t = 0 (Kleptose 30 mg/mL): 0.114 mg/mL | Assay at t = 4 wks without Compound 1 crystal at 25° C. (Kleptose 30 mg/mL): 0.036 mg/mL | Assay at t = 9 days with Compound 1 crystal at 25° C. (Kleptose 30 mg/mL): 0.036 mg/mL | Assay at t = 0 (Kleptose 60 mg/mL): 0.115 mg/mL | Assay at t = 4 wks without Compound 1 crystal at 25° C. (Kleptose 60 mg/mL): 0.114 mg/mL | Assay at t = 9 days with Compound 1 crystal at 25° C. (Kleptose 60 mg/mL): 0.065 mg/mL | Assay at t = 0 (Kleptose 70 mg/mL): 0.115 mg/mL | Assay at t = 4 wks without Compound 1 crystal at 25° C. (Kleptose 70 mg/mL): 0.114 mg/mL | Assay at t = 9 days with Compound 1 crystal at 25° C. (Kleptose 70 mg/mL): 0.077 mg/mL | Assay at t = 0 (Kleptose 80 mg/mL): 0.116 mg/mL | Assay at t = 4 wks without Compound 1 crystal at 25° C. (Kleptose 80 mg/mL): 0.114 mg/mL | Assay at t = 9 days with Compound 1 crystal at 25° C. (Kleptose 80 mg/mL): 0.103 mg/mL | Assay at t = 0 (Kleptose 90 mg/mL): 0.116 mg/mL | Assay at t = 4 wks without Compound 1 crystal at 25° C. (Kleptose 90 mg/mL): 0.115 mg/mL | Assay at t = 9 days with Compound 1 crystal at 25° C. (Kleptose 90 mg/mL): 0.114 mg/mL | Assay at t = 0 (Kleptose 100 mg/mL): 0.117 mg/mL | Assay at t = 4 wks without Compound 1 crystal at 25° C. (Kleptose 100 mg/mL): 0.115 mg/mL | Assay at t = 9 days with Compound 1 crystal at 25° C. (Kleptose 100 mg/mL): 0.117 mg/mL
